Measurements reported in ChEMBL document CHEMBL4251544, “Identification of imidazo[1,2-b]pyridazine TYK2 pseudokinase ligands as potent and selective allosteric inhibitors of TYK2 signalling” (Medchemcomm, 2017).

Key:
Assay type in all cases: ADME, organism-based
[1] = AUClast in Balb/c mouse at 3 mg/kg, iv; parameters: dose 3 mg/kg, route intravenous, time 0 - last; settings: in vivo
[2] = AUClast in Balb/c mouse at 25 mg/kg, po; parameters: dose 25 mg/kg, route oral, time 0 - last; settings: in vivo
[3] = Volume of distribution at steady state in Balb/c mouse at 3 mg/kg, iv; settings: in vivo, read-out: Vdss
[4] = Oral bioavailability in Balb/c mouse at 25 mg/kg; settings: in vivo
[5] = Cmax in Balb/c mouse at 25 mg/kg, po; parameters: dose 25 mg/kg, route oral; settings: in vivo

AUC(0-t) [1]: 2.3 µM·h
AUC(0-t) [2]: 5.1 µM·h
Vd [3]: 6.3 L/kg
bioavailability [4]: 27%
Cmax [5]: 2800 nM
Structure (SMILES): CNc1cc(Nc2cc(F)cc(F)c2OC)nn2c(C(=O)NC[C@](C)(O)CO)cnc12
